From US20260083865A1, “PROSTATE SPECIFIC MEMBRANE ANTIGEN (PSMA) LIGANDS AND USE THEREOF” (priority 2022, published 2026) come the findings set out here.

Numbered stars: 1 amine (or outer) side, 2 acyl side, 3 side chain; on linkers, the order of the positions; unused ones are H or OH. Bridge positions count the residues as written; N and C are the ends. Square brackets hold non-standard residues; d marks the D form. Side chains are listed from the residue outwards. Peptide text beside a SMILES is read from it. * marks the point of attachment. TtdsdLys(DOTA)NH2 = NC(=O)[C@@H](CCCCNC(=O)CN1CCN(CC(=O)O)CCN(CC(=O)O)CCN(CC(=O)O)CC1)NC(=O)CCC(=O)NCCCOCCOCCOCCCN*; DOTA = O=C(O)CN1CCN(CC(=O)O)CCN(CC(=O)*)CCN(CC(=O)O)CC1; Phe(3-Cl) = N[C@@H](Cc1cccc(Cl)c1)C(=O)O; X1 = O=C(CC1CCN([*:1])CC1)[*:2]; Cit = NC(=O)NCCC[C@H](N)C(=O)O; Tle = CC(C)(C)[C@H](N)C(=O)O; 4Abz = Nc1ccc(C(=O)O)cc1; NHCH2tBu = CC(C)(C)CN*; Aib = CC(C)(N)C(=O)O; CO = O=C([*:1])[*:2]; βAla = NCCC(=O)O; NHBu = CCCCN* Bounds are passed on as bounds.

In assay [1] the target is T1, PSMA-expressing C4-2 cells (Homo sapiens, UniProt Q04609).
T1 construct: PSMA-expressing C4-2 cells (ATCC, Cat. No. CRL-3314) were cultured in RPMI-1640; host or cells: C4-2 cells
The assay can be described thus: FACS binding assay (competition with 50 nM PSM-0183). The following applies: FACS binding, C4-2 cells, competition with 50 nM PSM-0183; category; read-out: pIC50 [C4-2] CAT (converted). In short, it runs like this: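 Competition format: fluorescent tracer PSM-0183 (50 nM) displaced from PSMA on C4-2 cells by a test compound titration over 1 h at 4 °C. Bound tracer was quantified as flow-cytometric AF488 median fluorescence after washing. Four-parameter logistic fits of MFI data gave IC50 and pIC50.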

The target of assay [2] is T2, Fc-fusion protein of human PSMA (hPSMA-Fc) (Homo sapiens, UniProt Q04609).
T2 construct: purchased Acro Biosystems PSA-H5264
Put plainly: Surface plasmon resonance assay (Biacore T200, single cycle kinetic). Format: binding. The following applies: SPR, hPSMA-Fc, single cycle kinetic, 25° C.; category; read-out: pKD CAT (converted). An outline of the steps:
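KD, expressed as pKD, came from 1:1 Langmuir fits of reference- and buffer-blank-subtracted SPR data. The runs were single-cycle kinetics at 25° C in HBST/0.1% DMSO over human PSMA-Fc, captured to ~1000 RU on a peptide-coated CM5 surface and regenerated with 10 mM glycine pH 1.5.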
(In general: SPR reads the build-up and loss of mass on a sensor chip optically.)

T2 sequence (Q04609 44-750 limits assumed): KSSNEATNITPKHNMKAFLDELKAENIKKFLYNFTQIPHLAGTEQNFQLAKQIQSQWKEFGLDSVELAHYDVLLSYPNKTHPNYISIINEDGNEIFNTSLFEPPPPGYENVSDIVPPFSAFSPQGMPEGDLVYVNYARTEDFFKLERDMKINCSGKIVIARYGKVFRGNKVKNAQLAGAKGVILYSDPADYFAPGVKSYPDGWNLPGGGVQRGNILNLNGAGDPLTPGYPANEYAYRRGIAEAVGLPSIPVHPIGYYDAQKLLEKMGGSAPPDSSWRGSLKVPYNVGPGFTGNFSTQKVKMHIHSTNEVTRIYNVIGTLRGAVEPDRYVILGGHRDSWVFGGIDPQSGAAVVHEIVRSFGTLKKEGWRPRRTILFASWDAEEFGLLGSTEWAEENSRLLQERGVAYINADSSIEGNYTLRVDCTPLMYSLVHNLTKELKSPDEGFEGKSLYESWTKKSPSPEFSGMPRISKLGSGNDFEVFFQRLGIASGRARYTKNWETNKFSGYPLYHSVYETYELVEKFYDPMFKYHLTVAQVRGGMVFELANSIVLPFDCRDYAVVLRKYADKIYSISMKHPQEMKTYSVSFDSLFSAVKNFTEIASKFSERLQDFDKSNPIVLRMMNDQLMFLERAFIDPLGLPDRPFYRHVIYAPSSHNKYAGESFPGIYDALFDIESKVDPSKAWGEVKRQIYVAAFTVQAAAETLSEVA
T1 sequence (Q04609 whole entry): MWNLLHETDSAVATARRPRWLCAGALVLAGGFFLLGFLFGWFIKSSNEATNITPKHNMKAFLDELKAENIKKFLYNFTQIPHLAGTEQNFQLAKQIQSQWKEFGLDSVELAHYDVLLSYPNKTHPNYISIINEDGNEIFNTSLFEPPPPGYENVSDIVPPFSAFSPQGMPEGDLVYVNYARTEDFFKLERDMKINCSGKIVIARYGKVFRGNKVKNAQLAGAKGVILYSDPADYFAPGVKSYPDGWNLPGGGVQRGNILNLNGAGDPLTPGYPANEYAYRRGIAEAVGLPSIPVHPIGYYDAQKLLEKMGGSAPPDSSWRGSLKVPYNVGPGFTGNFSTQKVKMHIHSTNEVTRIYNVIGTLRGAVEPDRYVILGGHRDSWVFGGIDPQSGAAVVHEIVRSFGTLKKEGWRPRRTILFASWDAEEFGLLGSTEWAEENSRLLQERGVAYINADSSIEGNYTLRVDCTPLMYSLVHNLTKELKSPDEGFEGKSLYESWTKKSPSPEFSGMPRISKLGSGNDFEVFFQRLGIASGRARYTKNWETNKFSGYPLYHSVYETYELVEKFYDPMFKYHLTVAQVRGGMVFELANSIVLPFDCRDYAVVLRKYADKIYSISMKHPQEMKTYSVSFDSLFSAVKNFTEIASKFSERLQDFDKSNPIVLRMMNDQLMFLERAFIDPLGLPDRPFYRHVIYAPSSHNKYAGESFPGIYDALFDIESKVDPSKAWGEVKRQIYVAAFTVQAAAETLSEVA

With `CCCCNC(=O)N[C@H](C(=O)NC(C)(C)C(=O)N[C@@H](Cc1cccc(Cl)c1)C(=O)N[C@H]1CSSC[C@@H](C(=O)N[C@H](C(=O)N[C@H](C(=O)N2CCC(CC(=O)N[C@H](CCCCNC(=O)CN3CCN(CC(=O)O)CCN(CC(=O)O)CCN(CC(=O)O)CC3)C(N)=O)CC2)[C@@H](C)O)C(C)(C)C)NC(=O)[C@H](CC(N)=O)NC(=O)C(C)(C)NC(=O)[C@H](CCCNC(N)=O)NC(=O)[C@H](CCCCN)NC1=O)[C@@H](C)O` [PSM-0207, nBuCAyl-Thr-Aib-Mcf-[Cys-Lys-Cit-Aib-Asn-Cys]-Tle-Thr-Cmp-lys(DOTA)-NH2] ({NHBu-CO}-T[Aib][Phe(3-Cl)]CK[Cit][Aib]NC[Tle]T[X1][dK](DOTA)-NH2; disulfide 4-9), the IC50 in assay [1] was less than 200 nM. Further, the Kd in assay [2] was 12.6 to 126 nM.
As to `CC(=O)N[C@H](C(=O)NC(C)(C)C(=O)N[C@@H](Cc1ccccc1)C(=O)N[C@H]1CSSC[C@@H](C(=O)NCC(C)(C)C)NC(=O)[C@H](CC(N)=O)NC(=O)C(C)(C)NC(=O)[C@H](CCCNC(=N)N)NC(=O)[C@H](CCCCN)NC1=O)[C@@H](C)O` [PSM-0208, Ac-Thr-Aib-Phe-[Cys-Lys-Arg-Aib-Asn-Cys]-NHnPen] (Ac-T[Aib]FCKR[Aib]NC-NHCH2tBu; disulfide 4-9), the IC50 in assay [1] was 200 to 1260 nM. In assay [2], the Kd was 126 to 501 nM.
Consider `C[C@@H](O)[C@H](NC(=O)[C@@H](NC(=O)[C@@H]1CSSC[C@H](NC(=O)[C@H](Cc2ccccc2)NC(=O)C(C)(C)NC(=O)[C@@H](NC(=O)CCNC(=O)CN2CCN(CC(=O)O)CCN(CC(=O)O)CCN(CC(=O)O)CC2)[C@@H](C)O)C(=O)N[C@@H](CCCCN)C(=O)N[C@@H](CCCNC(=N)N)C(=O)NC(C)(C)C(=O)N[C@@H](CC(N)=O)C(=O)N1)C(C)(C)C)C(N)=O` [PSM-0209, DOTA-Bal-Thr-Aib-Phe-[Cys-Lys-Arg-Aib-Asn-Cys]-Tle-Thr-NH2] ({DOTA-βAla}-T[Aib]FCKR[Aib]NC[Tle]T-NH2; disulfide 4-9), for which, in assay [1], the IC50 is less than 200 nM. Moreover, the Kd in assay [2] is less than 12.6 nM.
For `CC(=O)N[C@H](C(=O)NC(C)(C)C(=O)N[C@@H](Cc1ccccc1)C(=O)N[C@H]1CSSC[C@@H](C(=O)N[C@H](C(=O)N[C@H](C(=O)N[C@@H](CC(=O)O)C(N)=O)[C@@H](C)O)C(C)(C)C)NC(=O)[C@H](CC(N)=O)NC(=O)C(C)(C)NC(=O)[C@H](CCCNC(=N)N)NC(=O)[C@H](CCC(N)=O)NC1=O)[C@@H](C)O` [PSM-0210, Ac-Thr-Aib-Phe-[Cys-Gln-Arg-Aib-Asn-Cys]-Tle-Thr-Asp-NH2] (Ac-T[Aib]FCQR[Aib]NC[Tle]TD-NH2; disulfide 4-9), in that order: less than 200 nM and 12.6 to 126 nM.
For `CC(=O)N[C@H](C(=O)NC(C)(C)C(=O)N[C@@H](Cc1ccccc1)C(=O)N[C@H]1CSSC[C@@H](C(=O)N[C@H](C(=O)N[C@H](C(N)=O)[C@@H](C)O)C(C)(C)C)NC(=O)[C@H](CC(N)=O)NC(=O)[C@H](CCCCNC(=O)c2ccc(NC(=O)CN3CCN(CC(=O)O)CCN(CC(=O)O)CCN(CC(=O)O)CC3)cc2)NC(=O)[C@H](CCCNC(=N)N)NC(=O)[C@H](CCCCN)NC1=O)[C@@H](C)O` [PSM-0211, Ac-Thr-Aib-Phe-[Cys-Lys-Arg-Lys(DOTA-Pab)-Asn-Cys]-Tle-Thr-NH2] (Ac-T[Aib]FCKRK([4Abz-DOTA])NC[Tle]T-NH2; disulfide 4-9), in that order: less than 200 nM and less than 12.6 nM.
As for `CC(=O)N[C@H](C(=O)NC(C)(C)C(=O)N[C@@H](Cc1ccccc1)C(=O)N[C@H]1CSSC[C@@H](C(=O)N[C@H](C(=O)N[C@H](C(=O)N[C@@H](CC(=O)O)C(=O)NCCCOCCOCCOCCCNC(=O)CCC(=O)N[C@H](CCCCNC(=O)CN2CCN(CC(=O)O)CCN(CC(=O)O)CCN(CC(=O)O)CC2)C(N)=O)[C@@H](C)O)C(C)(C)C)NC(=O)[C@H](CC(N)=O)NC(=O)C(C)(C)NC(=O)[C@H](CCCNC(=N)N)NC(=O)[C@H](CCCCN)NC1=O)[C@@H](C)O` [PSM-0212, Ac-Thr-Aib-Phe-[Cys-Lys-Arg-Aib-Asn-Cys]-Tle-Thr-Asp-Ttds-lys(DOTA)-NH2] (Ac-T[Aib]FCKR[Aib]NC[Tle]TD-{TtdsdLys(DOTA)NH2}; disulfide 4-9), the IC50 in assay [1] is less than 200 nM. Also, in assay [2], the Kd is less than 12.6 nM.
